From patent US8859541B2, “6-alkynylpyridines” (Boehringer Ingelheim International GmbH, priority 2012, dated 2014) come the findings set out here.

T1 sequence (P98170 241-356): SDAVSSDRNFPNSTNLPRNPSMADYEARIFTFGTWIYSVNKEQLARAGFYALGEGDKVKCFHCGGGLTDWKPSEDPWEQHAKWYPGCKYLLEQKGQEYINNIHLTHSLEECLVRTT

This experiment addresses T1, XIAP BIR3 (Homo sapiens, UniProt P98170).
T1 construct: covering amino acids 241 to 356; XIAP BIR3; made in house; host or cells: E. coli
The experiment in a line: XIAP BIR3 binding assay (DELFIA), displacement of SMAC peptide. The conditions noted are these: GST-fusion BIR3 domain (aa 241 to 356) 10 nM, SMAC peptide 10 nM; activity of the (S)-isomers. In a few lines:
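Each BIR3 domain (10 nM) incubated with biotinylated N-terminal SMAC peptide (10 nM) and compound for 1 h at room temp in Tris/NaCl buffer with BSA, DTT and Triton X-100. Captured on streptavidin plates; bound BIR3 detected by Eu-labelled anti-GST time-resolved fluorescence, giving IC50 values.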
For the compound `CNC(C)C(=O)Nc1ccc(-c2cnccc2C#N)c(C#Cc2cc(F)cc(F)c2)n1` (stereo not drawn) [Example 160, N-[5-(4-cyanopyridin-3-yl)-6-[2-(3,5-difluorophenyl)ethynyl]-pyridin-2-yl]-2-(methylamino)-propanamide], the IC50 came to 474 nM.
Consider `CNC(C)C(=O)Nc1ccc(-c2c(F)ccc3ccc(C)nc23)c(C#Cc2ccccc2)n1` (stereo not drawn) [Example 162, N-[5-(7-fluoro-2-methylquinolin-8-yl)-6-(2-phenylethynyl)pyridin-2-yl]-2-(methylamino)propan-amide], for which the IC50 turned out to be 1820 nM.
In turn, `CNC(C)C(=O)Nc1ccc(-c2c(OC)ccc3ccccc23)c(C#Cc2ccccc2)n1` (stereo not drawn) [Example 163, N-[5-(2-methoxynaphthalen-1-yl)-6-(2-phenylethynyl)pyridin-2-yl]-2-(methylamino)propanamide] showed an IC50 of 4450 nM.
With `CNC(C)C(=O)Nc1ccc(-c2c(C)nn(C)c2C)c(C#Cc2ccc3cnccc3c2)n1` (stereo not drawn) [Example 164, N-[6-(2-isoquinolin-6-ylethynyl)-5-(1,3,5-trimethylpyrazol-4-yl)-pyridin-2-yl]-2-(methylamino)-propanamide] the figure was 335 nM; with `CC(N)C(=O)Nc1ccc(C2CCCC2)c(C#Cc2ccccc2)n1` (stereo not drawn) [Example 166, 2-amino-N-[5-cyclopentyl-6-(2-phenylethynyl)pyridin-2-yl]-propan-amide], 898 nM; with `CCCc1ccc(NC(=O)C(C)N)nc1C#Cc1ccccc1` (stereo not drawn) [Example 167, 2-amino-N-[6-(2-phenylethynyl)-5-propylpyridin-2-yl]propanamide], 874 nM.
The result for `CCNC(CC)C(=O)Nc1ccc(-c2cncnc2)c(C#Cc2ccc3ncccc3c2)n1` (stereo not drawn) [Example 169, 2-(ethylamino)-N-[5-pyrimidin-5-yl-6-(2-quinolin-6-ylethynyl)pyridin-2-yl]butanamide] reads 1150 nM.
Regarding `CCNC(CC)C(=O)Nc1ccc(-c2cncnc2)c(C#Cc2ccc3ncccc3c2)n1` (stereo not drawn) [Example 170, 2-(ethylamino)-N-[5-pyrimidin-5-yl-6-(2-quinolin-6-ylethynyl)pyridin-2-yl]-butanamide], the IC50 turned out to be 1370 nM.
With `Cc1noc(C)c1-c1ccc(NC(=O)C(C)NC(C)C)nc1C#Cc1ccccc1` (stereo not drawn) [Example 171, N-[5-(3,5-dimethyl-1,2-oxazol-4-yl)-6-(2-phenylethynyl)pyridin-2-yl]-2-(propan-2-ylamino)propanamide] the figure was 1030 nM; with `CCCNC(C)C(=O)Nc1ccc(-c2c(C)noc2C)c(C#Cc2ccccc2)n1` (stereo not drawn) [Example 172, N-[5-(3,5-dimethyl-1,2-oxazol-4-yl)-6-(2-phenylethynyl)-pyridin-2-yl]-2-(propylamino)-propanamide], 502 nM.
The result for `CNC(C)C(=O)Nc1ccc(-c2c(C)ncnc2C)c(C#Cc2ccc3ccccc3c2)n1` (stereo not drawn) [Example 173, N-[5-(4,6-dimethylpyrimidin-5-yl)-6-(2-naphthalen-2-ylethynyl)pyridin-2-yl]-2-(methylamino)propanamide] reads 324 nM; that for `CNC(C)C(=O)Nc1ccc(-c2ccc3c(c2)C(=O)CCC3)c(C#Cc2ccccc2)n1` (stereo not drawn) [Example 178, 2-(methylamino)-N-[5-(8-oxo-6,7-dihydro-5H-naphthalen-2-yl)-6-(2-phenylethynyl)pyridin-2-yl]-propanamide], 214 nM; that for `CNC(C)C(=O)Nc1ccc(-c2nccc3ccccc23)c(C#Cc2ccccc2)n1` (stereo not drawn) [Example 179, N-[5-isoquinolin-1-yl-6-(2-phenylethynyl)pyridin-2-yl]-2-(methylamino)propanamide], 3800 nM.
With `CNC(C)C(=O)Nc1ccc(-c2cscc2-c2ccncc2)c(C#Cc2ccccc2)n1` (stereo not drawn) [Example 180, 2-(methylamino)-N-[6-(2-phenyl-ethynyl)-5-(4-pyridin-4-ylthiophen-3-yl)pyridin-2-yl]-propanamide] the figure was 260 nM; with `CNC(C)C(=O)Nc1ccc(-c2ccc([N+](=O)[O-])nc2)c(C#Cc2ccccc2)n1` (stereo not drawn) [Example 181, 2-(methylamino)-N-[5-(6-nitropyridin-3-yl)-6-(2-phenyl-ethynyl)pyridin-2-yl]propanamide], 222 nM.
In turn, `CNC(C)C(=O)Nc1ccc(-c2ccc(C(N)=O)nc2)c(C#Cc2ccccc2)n1` (stereo not drawn) [Example 183, 5-[6-[[2-(methylamino)-propanoyl]amino]-2-(2-phenyl-ethynyl)pyridin-3-yl]pyridine-2-carboxamide] came in with a concentration for half-maximal inhibition (IC50) of 146 nM.
With `CNC(C)C(=O)Nc1ccc(-c2cnoc2C)c(C#Cc2ccccc2)n1` (stereo not drawn) [Example 188, 2-(methylamino)-N-[5-(5-methyl-1,2-oxazol-4-yl)-6-(2-phenyl-ethynyl)pyridin-2-yl]propanamide] the figure was 128 nM; with `CNC(C)C(=O)Nc1ccc(-c2cnn(C)c2-c2ccccc2)c(C#Cc2ccccc2)n1` (stereo not drawn) [Example 190, 2-(methylamino)-N-[5-(1-methyl-5-phenylpyrazol-4-yl)-6-(2-phenylethynyl)pyridin-2-yl]-propanamide], 276 nM; with `CNC(C)C(=O)Nc1ccc(-c2c[nH]nc2C(=O)OC)c(C#Cc2ccccc2)n1` (stereo not drawn) [Example 193, methyl 4-[6-[[2-(methylamino)-propanoyl]amino]-2-(2-phenyl-ethynyl)pyridin-3-yl]-1H-pyrazole-3-carboxylate], 141 nM.
With `CNC(C)C(=O)Nc1ccc(-c2c(C)ncn2Cc2ccccc2)c(C#Cc2ccccc2)n1` (stereo not drawn) [Example 196, N-[5-(3-benzyl-5-methylimidazol-4-yl)-6-(2-phenylethynyl)pyridin-2-yl]-2-(methylamino)propan-amide] the figure was 609 nM; with `CC(N)C(=O)Nc1cc(Cl)cc(C#Cc2ccccc2)n1` (stereo not drawn) [Example 197, 2-amino-N-[4-chloro-6-(2-phenylethynyl)pyridin-2-yl]propanamide], 3180 nM.
In turn, `CNC(C)C(=O)Nc1cc(OC)c(-c2cncnc2)c(C#Cc2ccccc2)n1` (stereo not drawn) [Example 199, N-[4-methoxy-6-(2-phenyl-ethynyl)-5-pyrimidin-5-ylpyridin-2-yl]-2-(methyl-amino)propanamide] yielded an IC50 of 268 nM.
The result for `Cc1cc(C#Cc2ccccc2)nc(NC(=O)C(C)N)c1` (stereo not drawn) [Example 200, 2-amino-N-[4-methyl-6-(2-phenylethynyl)pyridin-2-yl]propanamide] reads 1790 nM.
In the case of `CNC(C)C(=O)Nc1cc(C(F)(F)F)c(-c2cncnc2)c(C#Cc2ccccc2)n1` (stereo not drawn) [Example 201, 2-(methylamino)-N-[6-(2-phenylethynyl)-5-pyrimidin-5-yl-4-(trifluoromethyl)pyridin-2-yl]propanamide], the IC50 worked out at 10800 nM.
The result for `CNC(C)C(=O)Nc1cc(Cl)c(-c2cncnc2)c(C#Cc2ccccc2)n1` (stereo not drawn) [Example 202, N-[4-chloro-6-(2-phenylethynyl)-5-pyrimidin-5-ylpyridin-2-yl]-2-(methyl-amino)propanamide] reads 483 nM; that for `Cc1ccc(C#Cc2nc(NC(=O)C(C)N)cc3ccccc23)cc1` (stereo not drawn) [Example 205, 2-amino-N-[1-[2-(4-methyl-phenyl)ethynyl]isoquinolin-3-yl]propanamide], 2300 nM; that for `CC(N)C(=O)Nc1cc2ccccc2c(C#Cc2ccc(Cl)cc2)n1` (stereo not drawn) [Example 207, 2-amino-N-[1-[2-(4-chlorophenyl)ethynyl]-isoquinolin-3-yl]propan-amide], 4240 nM.
`Cc1ccc(C#Cc2cccc(NC(=O)C(C)N)n2)cc1` (stereo not drawn) [Example 209, 2-amino-N-[6-[2-(4-methylphenyl)ethynyl]pyridin-2-yl]propanamide]: the IC50 turned out to be 1460 nM.
With `CC(N)C(=O)Nc1cccc(C#Cc2ccc(F)cc2F)n1` (stereo not drawn) [Example 210, 2-amino-N-[6-[2-(2,4-difluorophenyl)ethynyl]pyridin-2-yl]propanamide] the figure was 2610 nM; with `CC(N)C(=O)Nc1cccc(C#Cc2ccc(Cl)cc2)n1` (stereo not drawn) [Example 211, 2-amino-N-[6-[2-(4-chlorophenyl)ethynyl]pyridin-2-yl]propanamide], 2010 nM; with `CC(N)C(=O)Nc1cccc(C#Cc2ccc(F)c(F)c2)n1` (stereo not drawn) [Example 212, 2-amino-N-[6-[2-(3,4-difluorophenyl)ethynyl]pyridin-2-yl]propanamide], 3060 nM.
Compound `CC(N)C(=O)Nc1cccc(C#Cc2cccc(C(=O)OCC3CCOCC3)c2)n1` (stereo not drawn) [Example 214, oxan-4-ylmethyl 3-[2-[6-[[2-aminopropanoyl]-amino]pyridin-2-yl]ethynyl]benzoate] registered an IC50 of 7380 nM.
In turn, `CC(N)C(=O)Nc1cccc(C#Cc2ccsc2)n1` (stereo not drawn) [Example 216, 2-amino-N-[6-(2-thiophen-3-ylethynyl)pyridin-2-yl]propanamide] showed an IC50 of 2140 nM.
The result for `CC(N)C(=O)Nc1cccc(C#Cc2ccncc2)n1` (stereo not drawn) [Example 218, 2-amino-N-[6-(2-pyridin-4-ylethynyl)pyridin-2-yl]propanamide] reads 6540 nM; that for `CC(N)C(=O)Nc1cccc(C#Cc2ccc(F)cc2)n1` (stereo not drawn) [Example 219, 2-amino-N-[6-[2-(4-fluorophenyl)ethynyl]pyridin-2-yl]propanamide], 359 nM; that for `COc1cccc(C#Cc2cccc(NC(=O)C(C)N)n2)c1` (stereo not drawn) [Example 220, 2-amino-N-[6-[2-(3-methoxyphenyl)ethynyl]pyridin-2-yl]propanamide], 2160 nM.
Take `Cc1cccc(C#Cc2cccc(NC(=O)C(C)N)n2)c1` (stereo not drawn) [Example 221, 2-amino-N-[6-[2-(3-methylphenyl)ethynyl]pyridin-2-yl]propanamide]: the IC50 was determined as 222 nM.
With `CC(N)C(=O)Nc1cccc(C#Cc2ccccc2Cl)n1` (stereo not drawn) [Example 222, 2-amino-N-[6-[2-(2-chlorophenyl)ethynyl]pyridin-2-yl]propanamide] the figure was 1420 nM; with `CC(N)C(=O)Nc1cccc(C#CCc2ccccc2)n1` (stereo not drawn) [Example 224, 2-amino-N-[6-(3-phenylprop-1-ynyl)pyridin-2-yl]propanamide], 3560 nM.
